One experiment has as its system CaNT tumour vasculature. Kind of experiment: Activity against tumour vasculature measured by fluorescent dye (Hoechst 33342): tumour functional vascular volume. It is filed as in vivo, mice. To be noted: Carcinoma NT tumour, 24 h post dose. As for the experimental part:
Activity Against Tumour Vasculature Measured by Fluorescent Dye.
Tumour functional vascular volume in CaNT tumour-bearing mice was measured using the fluorescent dye Hoechst 33342 according to the method of Smith et al (Brit J Cancer 57, 247-253, 1988). The fluorescent dye was dissolved in saline at 6.25 mg/ml and injected intravenously at 10 mg/kg 24 hours after drug treatment. One minute later, animals were killed and tumours excised and frozen; 10 μm sections were cut at 3 different levels and observed under UV illumination using an Olympus microscope equipped with epifluorescence. Blood vessels were identified by their fluorescent outlines and vascular volume was quantified using a point scoring system based on that described by Chalkley, (J Natl Cancer Inst, 4, 47-53, 1943). All estimates were based on counting a minimum of 100 fields from sections cut at the 3 different levels.

A further experiment concerns CaNT tumours. Kind of experiment: Induction of necrosis in tumours, scored on haematoxylin and eosin stained sections. The experiment is classed as in vivo, mice. To be noted: Carcinoma NT tumour, 24 h post dose, mean score from at least three tumours, control tumours 2.0. As for the experimental part:
Mice bearing either CaNT or SaS tumours were treated with the test compound and tumours excised after 24 h, fixed in formalin, embedded in paraffin, sectioned and stained with haematoxylin and eosin. Sections were scored based on area of necrosis as follows:
Control tumours had mean scores of 2.0 (CaNT) and 1.0 (SaS). Mean values from at least three different tumours were obtained for each test compound.

Three molecules from patent US7265136B1, “Substituted stilbene compounds with vascular damaging activity” (Angiogene Pharmaceuticals Ltd., priority 1999, dated 2007) can be followed below.

Take `COc1ccc(/C=C\c2cc(OC)c(OC)c(OC)c2)cc1OP(=O)(O)O` [CA4P, Combretastatin A4 phosphate]: the figures for the “Vascular volume % reduction” value in the experiment on CaNT tumour vasculature (50 mg/kg i.p.) and in the experiment with CaNT tumour vasculature (50 mg/kg i.v.) were 91% and 88%, respectively. The Necrosis score in the experiment with CaNT tumours (50 mg/kg i.p.) came to 6.0; in the experiment on CaNT tumours (50 mg/kg i.v.) it was 5.7.

As to `COc1ccc(/C=C\c2cc(OC)c(OC)c(OC)c2)cc1OC(=O)C(N)CCCN=C(N)N[N+](=O)[O-]` (centres unmarked) [Cmpd. of Example 1, (Z)-1-(4-Methoxy-3-N^G-nitroarginyloxyphenyl)-2-(3,4,5-trimethoxyphenyl)ethene], the “Vascular volume % reduction” value in the experiment on CaNT tumour vasculature (50 mg/kg i.v.) turned out to be 98%. For the same molecule, the Necrosis score in the experiment on CaNT tumours (50 mg/kg i.v.) is listed as 10.0.

In the case of `COC(=O)C(CCCN=C(N)N[N+](=O)[O-])NC(=O)Oc1cc(/C=C\c2cc(OC)c(OC)c(OC)c2)ccc1OC` (centres unmarked) [Cmpd. of Example 2, (Z)-N-[2-methoxy-5-[2-(3,4,5-trimethoxyphenyl)ethenyl]phenoxycarbonyl]N^G-nitroarginine Methyl Ester], the “Vascular volume % reduction” value in the experiment with CaNT tumour vasculature (50 mg/kg i.p.) was determined as 95%. The molecule also returned a Necrosis score with CaNT tumours (50 mg/kg i.p.) of 8.0.
